Reference: patent US6368788B1 (priority 1987, dated 2002)
Marks after values point to notes of the source that are not given here.

Assays:
[1] = Thoracic cavity tumors: focal radiation therapy then L-Glu-L-Trp, clinical complications; assay type: in vivo, human; conditions: for Complications: Cardio-Pulm. / Complications: Mortality / Complications: Septic / Complications: Total: 5 × im 100 μg
Procedure: Surgical removal of thoracic tumors was followed in 38 patients by focal radiation therapy and then a course of L-Glu-L-Trp therapy consisting of 5 daily im injections of 100 μg L-Glu-L-Trp each. Only radiation therapy (and supportive antibiotic therapy) was administered as a control to 56 patients.

influenza = experiment: Influenza prophylaxis: incidence of acute respiratory diseases and influenza illness; assay type: in vivo, human
Procedure: A group of 452 persons were treated with daily dosages of 100 μg of L-Glu-L-Trp administered im on each of 5-10 consecutive days. A control group consisted of 250 untreated persons. The incidence of diagnosed respiratory diseases and influenza were recorded for both groups over the next four months.

lymphocytes = experiment: In vitro incubation of pyoderma patients' lymphocytes with 0.01% L-Glu-L-Trp; assay type: cell-based, human; conditions: 100 μg/mL in vitro
[2] = Allergies (hayfever protocol); parameters: species or system human; conditions: in vivo
Procedure: Twenty nine patients (29) with various diagnosed allergies were treated on a daily basis for 5-7 days with L-Glu-L-Trp at a dose of […] delivered im or by the intranasal route. Seventeen patients (17) in the control group received conventional therapy.

[3] = test system: lymphocytes of lymphoid organs; experiment: Immune indices (E-RFC, EA-RFC, EAC-RFC) in healthy guinea pigs; assay type: in vivo; conditions: for E-RFC / EA-RFC / EAC-RFC: healthy guinea pigs, 1 mg/kg im daily 5 days, day 10
Procedure: Immune parameters were investigated in healthy male guinea pigs ([…]) following administration of test or control agents. Each test and control group consisted of 10 animals. […] Physiological saline was administered im to the animals of the control group. The affects of these treatments were determined on day 10 (i.e., 5 days after the last injection) by preparing cells from peripheral blood (PBL), thymus (TYM), lymph nodes (LN), spleen (SPL), and red pulp of bone marrow (BM). Cells were tested for antibody Fc receptors (EA-RFC), complement receptors (EAC-RFC), T-lymphocytes, “active” T-lymphocytes (E-RFC), B-lymphocytes (EA-RFC and EAC-RFC; according to the method of Bianco, C., et al., J. Exp. Med. 132(4):702-720 (1970). The results of these analyses are shown in TABLES 53-54, below, where data are expressed either as the number of RFC×10^9 per liter of blood, or RFC×10^3 per milligram (mg) of tissue.
Thymus, left paratracheal lymph node, and spleen were surgically removed, weighed, and homogenized in a glass Dounce homogenizer in Medium 199. Tissue fragments were removed by filtration through a chaperon. Bone marrow cell suspensions were prepared by irrigating the bone marrow canal of the pelvis with Medium 199 and homogenizing the irrigated solution. Suspensions from the different respective sources were purified by centrifuging the different cell samples on different aliquots of δ1.077 Ficoll-Urotrast for 40 minutes at 1500-1800 rpm. The lymphocyte interfaces from the gradients were collected into a siliconized test tube and washed in Medium 199. Residual red cells in the lymphocyte suspensions were lysed using 3% acetic acid in the presence of 0.05% Hessian-violet as a viability marker. Cell concentrations were determined microscopically using a Goryaev counting chamber. Cell concentrations were adjusted to 2.5×10^6/mL.
Ram erythrocytes (E) were washed 4× in saline (2000 rpm/10 min.) and suspended at a final concentration of 1% in Medium 199. For determinations of the percentage of E-rosette forming T-lymphocytes (E-RFC) in a sample, 0.1 mL of a prepared lymphocyte suspension (2.5×10^6/ml) was incubated with 0.1 mL of the 1% ram erythrocyte suspension at 37° C. for 10 min., centrifuged at 800-1000 rpm for 5 min., maintained at 4° C. for 2 hrs., and finally resuspended and counted in a Goryaev chamber. Activated T-lymphocytes (i.e., having increased E-RFC capacity) were determined by mixing the test lymphocyte suspension with E, immediately centrifuging for 5 min. at 800-1000 rpm, resuspending the cells and counting the rosettes formed in a Goryaev chamber.
Antibody-coated rabbit erythrocytes were used for determinations of EA-RFC (i.e., “activated” T-lymphocytes) according to the method of Stadecker, M. J., et al., J. Immunol. 11(6):1834-1837 (1973). Erythrocytes were prepared, incubated with an optimal dilution of anti-rabbit IgG, washed, and prepared as a 1% cell suspension in a manner analogous to those above (E-RFC, supra). EA-RFC assays were performed in a manner analogous to the description above, i.e., E-RFC, supra.
Determinations of EAC-RFC (i.e., B-lymphocytes) were performed according to the method described by Bianco, C., et al., J. Exp. Med. 132(4):702-720 (1970).

L-Glu-L-Trp
Complications: Cardio-Pulm. ([1]; Esophagus, 22 patients): 1
Complications: Mortality ([1]; Esophagus, 22 patients): 0
Complications: Septic ([1]; Esophagus, 22 patients): 1
Complications: Total ([1]; Esophagus, 22 patients): 2
Complications: Cardio-Pulm. ([1]; Lung, 16 patients): 0
Complications: Mortality ([1]; Lung, 16 patients): 0
Complications: Septic ([1]; Lung, 16 patients): 0
Complications: Total ([1]; Lung, 16 patients): 1
Clinical outcome ([1]; human, in vivo): decreased the total number of complications
Average term of hospitalization (influenza; L-Glu-L-Trp group): 6.2 days
Incidence of lingering and complicated cases for in-patients, % (influenza; L-Glu-L-Trp group): 9.8%
Need for hospitalization, % (influenza; L-Glu-L-Trp group): 30.6%
Number of cases of temporary disablement per 100 persons/month (influenza; L-Glu-L-Trp group): 4.1
Number of days of temporary disablement per 100 persons/month (influenza; L-Glu-L-Trp group): 26.5
Overall incidence of lingering and complicated cases, % (influenza; L-Glu-L-Trp group): 3.9%
Pneumonia rate/100 persons/month (influenza; L-Glu-L-Trp group): 0.20
Sickness rate per 100 persons/month (influenza; L-Glu-L-Trp group): 9.8
Average term of hospitalization, Ratio Control/TX (influenza; in vivo): 1.4
Cases of temporary disablement, Ratio Control/TX (influenza; in vivo): 1.7
Days of temporary disablement, Ratio Control/TX (influenza; in vivo): 2.2
Incidence of lingering and complicated cases for in-patients, Ratio Control/TX (influenza; in vivo): 2.7
Need for hospitalization, Ratio Control/TX (influenza; in vivo): 1.7
Overall incidence of lingering and complicated cases, Ratio Control/TX (influenza; in vivo): 3.5
Pneumonia rate, Ratio Control/TX (influenza; in vivo): 2.5
Sickness rate, Ratio Control/TX (influenza; in vivo): 3.1
E-RFC (lymphocytes): 73.3±2.26%
OKT4+ lymphocytes (lymphocytes): 18.2±1.6%
OKT8+ lymphocytes (lymphocytes): 17.9±1.4%
Clinical outcome [2]: disappearance of allergic reactions
Decrease of T-lymphocytes in LN and BM ([3]; 1 mg/kg im, 5 days): 50%
Increase of splenic and thymus T-cells ([3]; 1 mg/kg im, 5 days): 2-9%
E-RFC ([3]; BM): 11.2 ± 2.3* 10^3/mg
EA-RFC ([3]; BM): 25.1 ± 1.9* 10^3/mg
EAC-RFC ([3]; BM): 13.9 ± 2.1 10^3/mg
E-RFC ([3]; LN): 81.4 ± 7.6* 10^3/mg
EA-RFC ([3]; LN): 61.7 ± 8.2 10^3/mg
EAC-RFC ([3]; LN): 173.3 ± 12.7 10^3/mg
E-RFC ([3]; PBL): 1.59 ± 0.78 10^9/L
EA-RFC ([3]; PBL): 0.82 ± 0.09 10^9/L
EAC-RFC ([3]; PBL): 0.79 ± 0.08* 10^9/L
E-RFC ([3]; SPL): 75.9 ± 6.8 10^3/mg
EA-RFC ([3]; SPL): 81.2 ± 7.4* 10^3/mg
EAC-RFC ([3]; SPL): 141.5 ± 22.6 10^3/mg
E-RFC ([3]; TYM): 448.1 ± 51.4 10^3/mg
EA-RFC ([3]; TYM): 542.6 ± 42.3 10^3/mg
EAC-RFC ([3]; TYM): 0 10^3/mg
Increase of complement receptor bearing cells (EAC-RFC) in blood ([3]; guinea pig, in vivo): 2 fold
CD2+ lymphocytes (E-RFC), BM ([3]; treated guinea pigs): 50% ↓ (p < 0.05)
CD2+ lymphocytes (E-RFC), LN ([3]; treated guinea pigs): 32% ↓ (p < 0.05)
CD2+ lymphocytes (E-RFC), Spleen ([3]; treated guinea pigs): ns
CD2+ lymphocytes (E-RFC), Thymus ([3]; treated guinea pigs): ns
Fc-receptor+ lymphocytes (EA-RFC), LN ([3]; treated guinea pigs): ns
Fc-receptor+ lymphocytes (EA-RFC), PBL ([3]; treated guinea pigs): ns
Fc-receptor+ lymphocytes (EA-RFC), Thymus ([3]; treated guinea pigs): ns
